Results reported in the NIST ThermoML archive (doi:10.1021/je5009125).
Numbers after ± are expanded uncertainties.

Assay: xn = mol fraction of the nth substance listed
Conditions: Liquid; for viscosity: Vibrating wire viscometry; for mass density: Vibrating tube method

O=C=O [carbon dioxide] + O
Conditions | mass density [kg/m3] | viscosity [mPa·s]
373.13 K, 70300 kPa, x1 = 0.0086 | – | 0.302 ± 0.006
373.13 K, 96400 kPa, x1 = 0.0086 | – | 0.308 ± 0.006
373.38 K, 70590 kPa, x1 = 0.0271 | 998.2 ± 0.7 | –
373.38 K, 100800 kPa, x1 = 0.0271 | 1010.3 ± 0.7 | –
373.42 K, 15090 kPa, x1 = 0.0086 | 967.8 ± 0.7 | –
373.42 K, 30180 kPa, x1 = 0.0086 | 974.6 ± 0.7 | –
373.42 K, 50280 kPa, x1 = 0.0086 | 983.2 ± 0.7 | –
373.42 K, 70390 kPa, x1 = 0.0086 | 991.5 ± 0.7 | –
373.42 K, 100710 kPa, x1 = 0.0086 | 1003.2 ± 0.7 | –
373.46 K, 30190 kPa, x1 = 0.0168 | 977.8 ± 0.7 | –
373.46 K, 50320 kPa, x1 = 0.0168 | 986.5 ± 0.7 | –
373.46 K, 70450 kPa, x1 = 0.0168 | 994.9 ± 0.7 | –
373.46 K, 100740 kPa, x1 = 0.0168 | 1006.7 ± 0.7 | –
374.09 K, 70300 kPa, x1 = 0.0271 | – | 0.309 ± 0.006
374.09 K, 96400 kPa, x1 = 0.0271 | – | 0.318 ± 0.006
397.88 K, 30100 kPa, x1 = 0.0168 | – | 0.233 ± 0.005
397.88 K, 50200 kPa, x1 = 0.0168 | – | 0.238 ± 0.006
397.88 K, 70200 kPa, x1 = 0.0168 | – | 0.244 ± 0.006
397.88 K, 96300 kPa, x1 = 0.0168 | – | 0.25 ± 0.006
397.98 K, 30100 kPa, x1 = 0.0086 | – | 0.231 ± 0.005
397.98 K, 50200 kPa, x1 = 0.0086 | – | 0.236 ± 0.006
397.98 K, 70300 kPa, x1 = 0.0086 | – | 0.242 ± 0.006
397.98 K, 96400 kPa, x1 = 0.0086 | – | 0.248 ± 0.006
398.48 K, 50470 kPa, x1 = 0.0271 | 970 ± 0.7 | –
398.48 K, 70600 kPa, x1 = 0.0271 | 979.3 ± 0.7 | –
398.48 K, 100800 kPa, x1 = 0.0271 | 992.1 ± 0.7 | –
398.55 K, 15060 kPa, x1 = 0.0086 | 948.3 ± 0.6 | –
398.55 K, 30170 kPa, x1 = 0.0086 | 955.6 ± 0.6 | –
398.55 K, 30190 kPa, x1 = 0.0168 | 958.2 ± 0.7 | –
398.55 K, 50290 kPa, x1 = 0.0086 | 964.9 ± 0.7 | –
398.55 K, 50330 kPa, x1 = 0.0168 | 967.8 ± 0.7 | –
398.55 K, 70390 kPa, x1 = 0.0086 | 973.7 ± 0.7 | –
398.55 K, 70460 kPa, x1 = 0.0168 | 976.7 ± 0.7 | –
398.55 K, 100710 kPa, x1 = 0.0086 | 986 ± 0.7 | –
398.55 K, 100730 kPa, x1 = 0.0168 | 989.4 ± 0.7 | –
398.98 K, 50200 kPa, x1 = 0.0271 | – | 0.241 ± 0.006
398.98 K, 70200 kPa, x1 = 0.0271 | – | 0.245 ± 0.006
398.98 K, 96300 kPa, x1 = 0.0271 | – | 0.254 ± 0.006
422.91 K, 30000 kPa, x1 = 0.0168 | – | 0.192 ± 0.005
422.91 K, 50100 kPa, x1 = 0.0168 | – | 0.196 ± 0.005
422.91 K, 70200 kPa, x1 = 0.0168 | – | 0.202 ± 0.005
422.91 K, 96200 kPa, x1 = 0.0168 | – | 0.208 ± 0.005
423.82 K, 50200 kPa, x1 = 0.0271 | – | 0.198 ± 0.005
423.82 K, 70300 kPa, x1 = 0.0271 | – | 0.204 ± 0.005
423.82 K, 96500 kPa, x1 = 0.0271 | – | 0.21 ± 0.005
423.84 K, 50460 kPa, x1 = 0.0271 | 948 ± 0.7 | –
423.84 K, 70580 kPa, x1 = 0.0271 | 958.1 ± 0.7 | –
423.84 K, 100810 kPa, x1 = 0.0271 | 972.1 ± 0.7 | –
423.92 K, 15070 kPa, x1 = 0.0086 | 925.9 ± 0.6 | –
423.92 K, 30180 kPa, x1 = 0.0086 | 934 ± 0.6 | –
423.92 K, 50300 kPa, x1 = 0.0086 | 944.2 ± 0.7 | –
423.92 K, 70420 kPa, x1 = 0.0086 | 953.8 ± 0.7 | –
423.92 K, 100710 kPa, x1 = 0.0086 | 967.1 ± 0.7 | –
423.93 K, 30200 kPa, x1 = 0.0168 | 935.7 ± 0.6 | –
423.93 K, 50340 kPa, x1 = 0.0168 | 946.2 ± 0.7 | –
423.93 K, 70460 kPa, x1 = 0.0168 | 956 ± 0.7 | –
423.93 K, 100730 kPa, x1 = 0.0168 | 969.7 ± 0.7 | –
424.03 K, 30100 kPa, x1 = 0.0086 | – | 0.19 ± 0.005
424.03 K, 50200 kPa, x1 = 0.0086 | – | 0.194 ± 0.005
424.03 K, 70200 kPa, x1 = 0.0086 | – | 0.199 ± 0.005
424.03 K, 96400 kPa, x1 = 0.0086 | – | 0.205 ± 0.005
448.29 K, 30000 kPa, x1 = 0.0168 | – | 0.163 ± 0.005
448.29 K, 50100 kPa, x1 = 0.0168 | – | 0.168 ± 0.005
448.29 K, 70100 kPa, x1 = 0.0168 | – | 0.173 ± 0.005
448.29 K, 96200 kPa, x1 = 0.0168 | – | 0.179 ± 0.005
448.71 K, 50200 kPa, x1 = 0.0271 | – | 0.169 ± 0.005
448.71 K, 70200 kPa, x1 = 0.0271 | – | 0.173 ± 0.005
448.71 K, 96400 kPa, x1 = 0.0271 | – | 0.179 ± 0.005
448.93 K, 30000 kPa, x1 = 0.0086 | – | 0.162 ± 0.005
448.93 K, 50100 kPa, x1 = 0.0086 | – | 0.167 ± 0.005
448.93 K, 70200 kPa, x1 = 0.0086 | – | 0.172 ± 0.005
448.93 K, 96300 kPa, x1 = 0.0086 | – | 0.178 ± 0.005
449.17 K, 50450 kPa, x1 = 0.0271 | 923.6 ± 0.7 | –
449.17 K, 70570 kPa, x1 = 0.0271 | 934.9 ± 0.7 | –
449.17 K, 100800 kPa, x1 = 0.0271 | 950.3 ± 0.7 | –
449.2 K, 15080 kPa, x1 = 0.0086 | 900.7 ± 0.6 | –
449.2 K, 30190 kPa, x1 = 0.0086 | 909.9 ± 0.6 | –
449.2 K, 30210 kPa, x1 = 0.0168 | 910.8 ± 0.6 | –
449.2 K, 50310 kPa, x1 = 0.0086 | 921.3 ± 0.7 | –
449.2 K, 50360 kPa, x1 = 0.0168 | 922.6 ± 0.7 | –
449.2 K, 70420 kPa, x1 = 0.0086 | 931.8 ± 0.7 | –
449.2 K, 70470 kPa, x1 = 0.0168 | 933.5 ± 0.7 | –
449.2 K, 100710 kPa, x1 = 0.0086 | 946.4 ± 0.7 | –
449.2 K, 100740 kPa, x1 = 0.0168 | 948.4 ± 0.7 | –
